# Data taken from ChEMBL document CHEMBL3997792, “Identification of the First Selective Activin Receptor-Like Kinase 1 Inhibitor, a Reversible Version of L-783277” (J Med Chem, 2017).
# The source made the active and inactive calls. No cut-off for these calls is given here.
# Tests used:
# [1] = biological target: T1, Activin receptor type-1-like (Homo sapiens, UniProt P37023); experiment: Inhibition of human ALK1 at 10 uM using casein as substrate in presence of [gamma-33P]-ATP by scintillation counting method relative to control
# [2] = biological target: T2, Activin receptor type-1-like (Mus musculus) (UniProt Q61288); experiment: Inhibition of BMP9-stimulated ALK1 in mouse C2C12 cells assessed as reduction in Smad1/5 phosphorylation at 10 uM pretreated for 2 hrs followed by BMP9-stimulation after 30 mins by western blot analysis relative to control; format: cell-based
# T2 sequence (whole entry): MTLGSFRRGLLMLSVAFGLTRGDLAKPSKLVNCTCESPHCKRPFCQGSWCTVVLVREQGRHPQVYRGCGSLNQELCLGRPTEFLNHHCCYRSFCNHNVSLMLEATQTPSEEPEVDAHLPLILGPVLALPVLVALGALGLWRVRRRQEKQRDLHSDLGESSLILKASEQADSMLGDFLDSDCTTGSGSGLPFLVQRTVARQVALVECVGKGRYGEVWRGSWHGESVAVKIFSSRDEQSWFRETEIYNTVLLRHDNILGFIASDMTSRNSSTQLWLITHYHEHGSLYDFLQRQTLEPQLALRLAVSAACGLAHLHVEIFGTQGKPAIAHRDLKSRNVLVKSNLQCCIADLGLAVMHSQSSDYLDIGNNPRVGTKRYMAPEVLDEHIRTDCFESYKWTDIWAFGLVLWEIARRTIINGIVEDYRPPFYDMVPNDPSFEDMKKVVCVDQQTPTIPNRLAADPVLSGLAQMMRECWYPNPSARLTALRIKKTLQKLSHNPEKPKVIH
# [3] = biological target: T3, Vascular endothelial growth factor receptor 3 (Homo sapiens, UniProt P35916); experiment: Inhibition of human FLT4 using poly[Glu:Tyr] (4:1) as substrate in presence of [gamma-33P]-ATP by scintillation counting method
# [4] = biological target: T4, Vascular endothelial growth factor receptor 2 (Homo sapiens, UniProt P35968); experiment: Inhibition of human KDR using poly[Glu:Tyr] (4:1) as substrate in presence of [gamma-33P]-ATP by scintillation counting method
# [5] = biological target: Bone morphogenetic protein receptor type-1A (Homo sapiens, UniProt P36894); experiment: Inhibition of human ALK3 using casein as substrate in presence of 10 uM ATP by radiometric kinase assay
# [6] = biological target: Dual specificity mitogen-activated protein kinase kinase 6 (Homo sapiens, UniProt P52564); experiment: Inhibition of human MKK6 using p38a as substrate in presence of [gamma-33P]-ATP by scintillation counting method
# [7] = biological target: T1, Activin receptor type-1-like; experiment: Inhibition of human ALK1 using casein as substrate in presence of [gamma-33P]-ATP by scintillation counting method
# [8] = biological target: Dual specificity mitogen-activated protein kinase kinase 6 (Homo sapiens) (UniProt P52564); experiment: Inhibition of human MKK6 at 1 uM using p38a as substrate in presence of [gamma-33P]-ATP by scintillation counting method relative to control
# [9] = biological target: T2, Activin receptor type-1-like (Mus musculus); experiment: Inhibition of BMP9-stimulated ALK1 in mouse C2C12 cells assessed as reduction in Smad1/5 phosphorylation at 0.1 to 1 uM pretreated for 2 hrs followed by BMP9-stimulation after 30 mins by western blot analysis; format: cell-based
# [10] = biological target: T2, Activin receptor type-1-like (Mus musculus); experiment: Inhibition of BMP9-stimulated ALK1 in mouse C2C12 cells assessed as decrease in p38 phosphorylation at 0.1 to 10 uM pretreated for 2 hrs followed by BMP9-stimulation after 30 mins by western blot analysis; format: cell-based
# [11] = biological target: T2, Activin receptor type-1-like (Mus musculus); experiment: Inhibition of BMP9-stimulated ALK1 in mouse C2C12 cells assessed as decrease in ERK1/2 phosphorylation at 0.1 to 10 uM pretreated for 2 hrs followed by BMP9-stimulation after 30 mins by western blot analysis; format: cell-based
# [12] = biological target: T2, Activin receptor type-1-like (Mus musculus); experiment: Inhibition of BMP9-stimulated ALK1 in mouse C2C12 cells assessed as decrease in MEK phosphorylation at 0.1 to 10 uM pretreated for 2 hrs followed by BMP9-stimulation after 30 mins by western blot analysis; format: cell-based
# TGF-beta receptor type-1 [13] = biological target: T5, TGF-beta receptor type-1 (Mus musculus, UniProt Q64729); experiment: Inhibition of ALK5 in mouse C2C12 cells assessed as decrease in TGFbeta1-induced Smad1/5 phosphorylation at 10 uM by Western blot method; format: cell-based
# T5 sequence (Q64729 whole entry): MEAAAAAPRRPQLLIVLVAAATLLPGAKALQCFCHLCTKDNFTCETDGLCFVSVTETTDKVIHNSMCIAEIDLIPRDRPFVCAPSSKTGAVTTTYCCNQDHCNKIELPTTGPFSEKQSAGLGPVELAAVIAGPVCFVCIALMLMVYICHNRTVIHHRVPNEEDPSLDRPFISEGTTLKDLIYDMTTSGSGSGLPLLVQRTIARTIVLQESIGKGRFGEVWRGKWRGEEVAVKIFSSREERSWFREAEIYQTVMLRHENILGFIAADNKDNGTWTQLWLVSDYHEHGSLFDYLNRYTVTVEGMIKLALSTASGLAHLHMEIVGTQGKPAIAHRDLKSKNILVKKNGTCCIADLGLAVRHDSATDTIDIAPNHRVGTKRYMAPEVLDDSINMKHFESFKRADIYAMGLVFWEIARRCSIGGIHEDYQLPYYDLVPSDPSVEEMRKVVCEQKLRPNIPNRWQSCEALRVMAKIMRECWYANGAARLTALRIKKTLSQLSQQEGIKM
# TGF-beta receptor type-1 [14] = biological target: T5, TGF-beta receptor type-1; experiment: Inhibition of ALK5 in mouse C2C12 cells assessed as decrease in TGFbeta1-induced Smad2/3 phosphorylation at 0.1 to 10 uM by Western blot method; format: cell-based
# [15] = biological target: T1, Activin receptor type-1-like; experiment: Inhibition of human ALK1 using casein as substrate in presence of 10 uM ATP by radiometric kinase assay
# Activin receptor type-1 [16] = biological target: T6, Activin receptor type-1 (Homo sapiens, UniProt Q04771); experiment: Inhibition of human ALK2 using casein as substrate in presence of 10 uM ATP by radiometric kinase assay
# Activin receptor type-1B = Activin receptor type-1B (Homo sapiens, UniProt P36896); experiment: Inhibition of human ALK4 using casein as substrate in presence of 10 uM ATP by radiometric kinase assay
# TGF-beta receptor type-1 [17] = biological target: TGF-beta receptor type-1 (Homo sapiens, UniProt P36897); experiment: Inhibition of human ALK5 using casein as substrate in presence of 10 uM ATP by radiometric kinase assay
# [18] = biological target: Bone morphogenetic protein receptor type-1B (Homo sapiens, UniProt O00238); experiment: Inhibition of human ALK6 using casein as substrate in presence of 10 uM ATP by radiometric kinase assay
# [19] = biological target: T1, Activin receptor type-1-like; experiment: Inhibition of human ALK1 using casein as substrate in presence of 200 uM ATP by radiometric kinase assay
# Activin receptor type-1 [20] = biological target: T6, Activin receptor type-1; experiment: Inhibition of human ALK2 using casein as substrate in presence of 200 uM ATP by radiometric kinase assay
# [21] = biological target: ALK3 (bone morphogenetic protein receptor type-1A) (Homo sapiens, UniProt P36894); experiment: Inhibition of human ALK3 at 10 uM using casein as substrate in presence of 200 uM ATP by radiometric kinase assay relative to control; conditions: probe casein
# [22] = biological target: ALK4 (activin receptor type-1B) (Homo sapiens, UniProt P36896); experiment: Inhibition of human ALK4 at 10 uM using casein as substrate in presence of 200 uM ATP by radiometric kinase assay relative to control; conditions: human ALK4 kinase (activin receptor type-1B), probe casein
# [23] = biological target: ALK5 (TGF-beta receptor type-1) (Homo sapiens, UniProt P36897); experiment: Inhibition of human ALK5 at 10 uM using casein as substrate in presence of 200 uM ATP by radiometric kinase assay relative to control; conditions: human ALK5 kinase (TGF-beta receptor type-1), probe casein
# [24] = biological target: ALK6 (bone morphogenetic protein receptor type-1B) (Homo sapiens, UniProt O00238); experiment: Inhibition of human ALK6 at 10 uM using casein as substrate in presence of 200 uM ATP by radiometric kinase assay relative to control; conditions: probe casein
# MDA-MB-231 = experiment: Antiproliferative activity against human MDA-MB-231 cells up to 100 uM after 72 hrs by CellTiter 96 non-radioactive cell proliferation assay; format: cell-based; conditions: mda-mb-231, 72 h
# [25] = biological target: T2, Activin receptor type-1-like (Mus musculus); experiment: Inhibition of ALK1 in mouse C2C12 cells assessed as downregulation of BMP9-induced Id1 mRNA levels at 10 uM pretreated for 2 hrs followed by BMP9-stimulation after 30 mins by RT-PCR analysis; format: cell-based
# HUVEC [26] = experiment: Angiogenic activity in HUVEC assessed as increase in vascular endothelial tube formation incubated for 6 hrs measured every 3 hrs by matrigel based light microscopic analysis; format: functional, cell-based; conditions: Homo sapiens
# HUVEC [27] = experiment: Angiogenic activity in HUVEC assessed as increase in angiogenic sprouting at 2 to 50 uM by microfluidic chip based 3D angiogenesis assay; format: functional, cell-based; conditions: Homo sapiens
# HUVEC [28] = experiment: Angiogenic activity in HUVEC assessed as increase in vessel areas at 2 to 50 uM by microfluidic chip based 3D angiogenesis assay; format: functional, cell-based; conditions: Homo sapiens
# HUVEC [29] = experiment: Angiogenic activity in HUVEC assessed as increase in sprout length at 2 to 50 uM by microfluidic chip based 3D angiogenesis assay; format: functional, cell-based; conditions: Homo sapiens
# HUVEC [30] = experiment: Angiogenic activity in HUVEC assessed as increase in angiogenic sprouting in presence of recombinant human VEGF165 by microfluidic chip based 3D angiogenesis assay; format: functional, cell-based
# [31] = biological target: T2, Activin receptor type-1-like (Mus musculus); experiment: Inhibition of BMP9-stimulated ALK1 in mouse C2C12 cells assessed as decrease in AKT phosphorylation at S473 at 0.1 to 10 uM pretreated for 2 hrs followed by BMP9-stimulation after 30 mins by western blot analysis; format: cell-based
# [32] = biological target: T2, Activin receptor type-1-like (Mus musculus); experiment: Inhibition of ALK1 in mouse C2C12 cells assessed as downregulation of BMP9-induced Id1 protein levels at 10 uM pretreated for 2 hrs followed by BMP9-stimulation after 30 mins by western blot analysis; format: cell-based
# [33] = biological target: T4, Vascular endothelial growth factor receptor 2; conditions: 1 uM
# Description: Inhibition of human KDR at 1 uM using poly[Glu:Tyr] (4:1) as substrate in presence of [gamma-33P]-ATP by scintillation counting method relative to control
# [34] = biological target: T3, Vascular endothelial growth factor receptor 3; conditions: 1 uM
# Description: Inhibition of human FLT4 at 1 uM using poly[Glu:Tyr] (4:1) as substrate in presence of [gamma-33P]-ATP by scintillation counting method relative to control
# [35] = biological target: Receptor-type tyrosine-protein kinase FLT3 (Homo sapiens) (UniProt P36888); conditions: 1 uM
# [36] = biological target: T1, Activin receptor type-1-like; conditions: 1 uM
# Description: Inhibition of human ALK1 at 1 uM using casein as substrate in presence of [gamma-33P]-ATP by scintillation counting method relative to control
# [37] = biological target: T1, Activin receptor type-1-like; conditions: 1 uM; remark: listed apart in the source
# Description: Inhibition of ALK1 in human A375 cells assessed as decrease in MEK1/2 phosphorylation at 1 uM by western blot analysis
# TGF-beta receptor type-1 [38] = biological target: T5, TGF-beta receptor type-1; experiment: Inhibition of ALK5 in mouse C2C12 cells assessed as decrease in TGFbeta1-induced Smad1/5 phosphorylation at 0.1 uM by Western blot method; format: cell-based
# T1 sequence (P37023 whole entry): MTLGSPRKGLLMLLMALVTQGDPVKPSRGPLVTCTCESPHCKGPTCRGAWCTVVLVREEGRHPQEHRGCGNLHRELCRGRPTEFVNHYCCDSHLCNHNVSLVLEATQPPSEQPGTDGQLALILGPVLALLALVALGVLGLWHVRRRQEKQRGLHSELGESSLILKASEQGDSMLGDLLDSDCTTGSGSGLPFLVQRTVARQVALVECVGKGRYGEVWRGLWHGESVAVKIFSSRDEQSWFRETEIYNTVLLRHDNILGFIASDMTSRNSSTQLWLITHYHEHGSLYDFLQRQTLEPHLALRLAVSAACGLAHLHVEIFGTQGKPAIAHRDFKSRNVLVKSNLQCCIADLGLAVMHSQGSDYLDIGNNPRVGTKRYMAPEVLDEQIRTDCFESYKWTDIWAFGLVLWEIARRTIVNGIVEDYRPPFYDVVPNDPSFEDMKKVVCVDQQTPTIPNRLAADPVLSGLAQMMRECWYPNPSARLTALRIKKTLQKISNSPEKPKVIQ
# T4 sequence (P35968 whole entry): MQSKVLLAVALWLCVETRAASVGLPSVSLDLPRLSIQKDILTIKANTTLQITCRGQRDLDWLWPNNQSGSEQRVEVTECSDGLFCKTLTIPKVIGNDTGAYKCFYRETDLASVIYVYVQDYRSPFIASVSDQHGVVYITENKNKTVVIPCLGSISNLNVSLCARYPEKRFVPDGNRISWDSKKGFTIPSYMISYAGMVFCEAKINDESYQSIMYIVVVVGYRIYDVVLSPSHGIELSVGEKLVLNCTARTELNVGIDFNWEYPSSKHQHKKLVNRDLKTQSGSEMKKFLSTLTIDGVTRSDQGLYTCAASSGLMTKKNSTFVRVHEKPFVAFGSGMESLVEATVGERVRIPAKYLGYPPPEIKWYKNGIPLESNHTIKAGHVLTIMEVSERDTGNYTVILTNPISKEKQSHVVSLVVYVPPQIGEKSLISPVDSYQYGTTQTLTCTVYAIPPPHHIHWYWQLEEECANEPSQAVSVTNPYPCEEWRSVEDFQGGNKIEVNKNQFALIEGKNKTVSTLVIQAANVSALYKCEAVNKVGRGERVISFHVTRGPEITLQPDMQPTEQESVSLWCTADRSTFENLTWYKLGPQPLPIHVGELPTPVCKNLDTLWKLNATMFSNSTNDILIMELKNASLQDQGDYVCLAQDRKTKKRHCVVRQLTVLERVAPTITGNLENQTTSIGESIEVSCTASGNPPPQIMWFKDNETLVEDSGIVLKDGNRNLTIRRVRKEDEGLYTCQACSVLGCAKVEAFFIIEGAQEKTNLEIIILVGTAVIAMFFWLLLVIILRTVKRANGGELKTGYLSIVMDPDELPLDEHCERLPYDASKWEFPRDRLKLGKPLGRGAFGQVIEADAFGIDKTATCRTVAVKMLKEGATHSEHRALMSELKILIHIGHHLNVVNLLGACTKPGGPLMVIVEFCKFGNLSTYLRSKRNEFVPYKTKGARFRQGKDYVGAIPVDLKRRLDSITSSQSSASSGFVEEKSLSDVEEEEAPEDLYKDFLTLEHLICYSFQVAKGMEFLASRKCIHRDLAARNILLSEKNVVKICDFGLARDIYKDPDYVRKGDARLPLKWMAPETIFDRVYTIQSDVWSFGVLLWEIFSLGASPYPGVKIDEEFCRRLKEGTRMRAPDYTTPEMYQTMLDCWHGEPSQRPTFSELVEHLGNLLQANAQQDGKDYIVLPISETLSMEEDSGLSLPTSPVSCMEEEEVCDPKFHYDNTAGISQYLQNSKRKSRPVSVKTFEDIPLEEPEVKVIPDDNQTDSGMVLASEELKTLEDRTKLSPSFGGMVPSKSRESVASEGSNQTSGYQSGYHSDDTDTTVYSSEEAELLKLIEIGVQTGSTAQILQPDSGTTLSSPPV
# T6 sequence (Q04771 whole entry): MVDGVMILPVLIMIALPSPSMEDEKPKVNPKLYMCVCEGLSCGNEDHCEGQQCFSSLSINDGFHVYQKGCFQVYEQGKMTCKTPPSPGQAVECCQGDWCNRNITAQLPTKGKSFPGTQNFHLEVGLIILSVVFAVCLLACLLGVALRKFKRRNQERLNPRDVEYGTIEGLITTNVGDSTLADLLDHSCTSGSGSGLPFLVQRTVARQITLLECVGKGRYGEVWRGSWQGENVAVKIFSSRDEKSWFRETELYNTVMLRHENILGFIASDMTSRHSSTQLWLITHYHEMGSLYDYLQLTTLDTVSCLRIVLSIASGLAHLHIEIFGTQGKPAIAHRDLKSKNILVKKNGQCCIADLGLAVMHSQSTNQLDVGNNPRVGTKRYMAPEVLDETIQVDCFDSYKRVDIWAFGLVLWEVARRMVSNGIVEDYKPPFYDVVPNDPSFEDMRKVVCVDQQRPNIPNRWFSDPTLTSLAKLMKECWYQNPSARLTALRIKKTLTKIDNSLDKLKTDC
# T3 sequence (P35916 whole entry): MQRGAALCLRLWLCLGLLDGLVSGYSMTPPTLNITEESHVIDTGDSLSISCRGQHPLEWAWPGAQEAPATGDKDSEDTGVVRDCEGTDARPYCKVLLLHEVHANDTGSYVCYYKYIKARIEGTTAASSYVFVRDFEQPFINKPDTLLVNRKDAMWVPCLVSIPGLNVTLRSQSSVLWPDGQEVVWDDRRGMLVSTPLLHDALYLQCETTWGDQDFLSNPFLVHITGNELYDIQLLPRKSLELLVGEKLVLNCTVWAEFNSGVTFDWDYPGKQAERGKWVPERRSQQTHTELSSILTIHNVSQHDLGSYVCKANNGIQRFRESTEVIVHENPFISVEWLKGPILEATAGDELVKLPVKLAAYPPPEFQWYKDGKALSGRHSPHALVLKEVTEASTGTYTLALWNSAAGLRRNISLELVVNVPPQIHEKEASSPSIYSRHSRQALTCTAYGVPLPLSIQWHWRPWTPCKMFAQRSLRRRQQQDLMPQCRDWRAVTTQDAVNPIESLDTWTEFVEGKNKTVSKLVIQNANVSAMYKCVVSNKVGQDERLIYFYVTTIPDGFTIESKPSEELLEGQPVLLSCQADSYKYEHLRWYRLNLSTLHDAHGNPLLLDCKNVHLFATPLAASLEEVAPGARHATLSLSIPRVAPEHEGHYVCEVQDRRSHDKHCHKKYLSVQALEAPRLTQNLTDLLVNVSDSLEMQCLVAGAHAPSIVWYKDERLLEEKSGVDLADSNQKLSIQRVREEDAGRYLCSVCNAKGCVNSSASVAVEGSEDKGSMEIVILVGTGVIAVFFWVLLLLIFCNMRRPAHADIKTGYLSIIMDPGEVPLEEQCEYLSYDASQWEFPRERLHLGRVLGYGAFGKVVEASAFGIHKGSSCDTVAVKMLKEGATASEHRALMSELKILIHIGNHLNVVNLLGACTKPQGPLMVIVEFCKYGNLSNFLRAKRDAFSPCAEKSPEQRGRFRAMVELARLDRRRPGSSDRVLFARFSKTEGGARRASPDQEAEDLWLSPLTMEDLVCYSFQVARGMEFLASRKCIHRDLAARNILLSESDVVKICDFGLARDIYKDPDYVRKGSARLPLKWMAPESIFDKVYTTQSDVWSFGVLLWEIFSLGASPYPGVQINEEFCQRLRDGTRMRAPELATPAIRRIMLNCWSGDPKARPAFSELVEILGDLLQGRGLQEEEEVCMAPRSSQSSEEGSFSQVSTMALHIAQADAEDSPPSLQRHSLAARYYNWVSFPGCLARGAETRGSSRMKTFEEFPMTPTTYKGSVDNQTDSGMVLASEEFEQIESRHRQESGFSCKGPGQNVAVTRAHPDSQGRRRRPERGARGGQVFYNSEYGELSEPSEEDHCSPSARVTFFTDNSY
# Chain of Receptor-type tyrosine-protein kinase FLT3 (Homo sapiens) (P36888 whole entry): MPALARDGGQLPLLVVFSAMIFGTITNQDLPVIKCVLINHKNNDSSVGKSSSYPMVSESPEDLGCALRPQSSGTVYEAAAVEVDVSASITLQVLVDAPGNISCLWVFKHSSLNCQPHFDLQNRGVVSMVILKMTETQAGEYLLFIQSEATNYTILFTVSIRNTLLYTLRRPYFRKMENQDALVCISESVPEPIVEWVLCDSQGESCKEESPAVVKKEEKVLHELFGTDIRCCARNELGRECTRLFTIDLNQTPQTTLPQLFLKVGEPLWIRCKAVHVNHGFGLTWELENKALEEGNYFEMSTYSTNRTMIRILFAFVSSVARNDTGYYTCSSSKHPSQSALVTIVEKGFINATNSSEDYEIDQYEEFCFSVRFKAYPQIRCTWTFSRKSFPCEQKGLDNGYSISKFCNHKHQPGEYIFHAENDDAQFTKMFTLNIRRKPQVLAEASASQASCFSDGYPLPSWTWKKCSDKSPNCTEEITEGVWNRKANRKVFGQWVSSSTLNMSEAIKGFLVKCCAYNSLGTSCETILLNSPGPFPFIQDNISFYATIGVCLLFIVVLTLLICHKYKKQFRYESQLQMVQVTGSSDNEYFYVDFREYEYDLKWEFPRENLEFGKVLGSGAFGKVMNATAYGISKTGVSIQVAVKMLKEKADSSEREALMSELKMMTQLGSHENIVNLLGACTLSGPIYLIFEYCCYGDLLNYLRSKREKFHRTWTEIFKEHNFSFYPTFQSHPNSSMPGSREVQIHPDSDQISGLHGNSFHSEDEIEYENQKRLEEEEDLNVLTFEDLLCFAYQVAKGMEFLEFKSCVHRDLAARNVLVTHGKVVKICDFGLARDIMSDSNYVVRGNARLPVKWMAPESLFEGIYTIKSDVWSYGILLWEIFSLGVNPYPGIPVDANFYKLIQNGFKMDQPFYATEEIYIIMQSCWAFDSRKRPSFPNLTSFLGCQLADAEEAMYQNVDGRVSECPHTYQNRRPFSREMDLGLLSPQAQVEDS
# Chain of Dual specificity mitogen-activated protein kinase kinase 6 (P52564 whole entry): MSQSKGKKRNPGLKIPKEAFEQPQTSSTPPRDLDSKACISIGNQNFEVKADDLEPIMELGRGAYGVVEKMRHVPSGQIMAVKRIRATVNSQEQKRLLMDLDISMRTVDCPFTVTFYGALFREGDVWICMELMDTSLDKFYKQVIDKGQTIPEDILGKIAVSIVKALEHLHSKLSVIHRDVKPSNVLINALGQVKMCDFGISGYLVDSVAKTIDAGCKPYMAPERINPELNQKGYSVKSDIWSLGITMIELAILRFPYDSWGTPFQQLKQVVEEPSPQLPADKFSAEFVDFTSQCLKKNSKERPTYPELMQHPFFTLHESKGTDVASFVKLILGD
smiles,measurement,setting,value
COc1cc(O)c2c(c1)CCC[C@H](O)[C@H](O)C(=O)NCC[C@H](C)OC2=O,inhibition,[1],< 40%
same,inhibition,[2],inactive
COc1cc(O)c2c(c1)CCC[C@H](O)[C@H](O)C(=O)CCC[C@H](C)OC2=O,IC50,[3],114 nM
same,IC50,[4],163 nM
same,IC50,[5],6270 nM
same,IC50,[6],> 10000 nM
same,IC50,[7],62 nM
same,inhibition,[8],89%
same,inhibition,[2],100%
same,inhibition,[9],Active
same,inhibition,[10],inactive
same,inhibition,[11],inactive
same,inhibition,[12],inactive
same,inhibition (INH),TGF-beta receptor type-1 [13],Active
same,inhibition (INH),TGF-beta receptor type-1 [14],Not Active
same,IC50,[15],62 nM
same,IC50,Activin receptor type-1 [16],217 nM
same,IC50,Activin receptor type-1B,2760 nM
same,IC50,TGF-beta receptor type-1 [17],7210 nM
same,IC50,[18],727 nM
same,IC50,[19],1210 nM
same,IC50,Activin receptor type-1 [20],3350 nM
same,inhibition at 10 µM,[21],< 40%
same,inhibition at 10 µM,[22],< 40%
same,inhibition at 10 µM,[23],< 40%
same,inhibition at 10 µM,[24],< 40%
same,Activity,MDA-MB-231,Non-Toxic
same,inhibition,[25],Active
same,Activity,HUVEC [26],Dose-dependent effect
same,Activity,HUVEC [27],Active
same,Activity,HUVEC [28],Active
same,Activity,HUVEC [29],Active
same,Activity,HUVEC [30],Dose-dependent effect
same,inhibition,[31],inactive
same,inhibition,[32],Active
same,inhibition,[33],> 80%
same,inhibition,[34],> 80%
same,inhibition,[35],> 80%
same,inhibition,[36],> 80%
same,inhibition,[37],Active
c1ccc2c(-c3cnn4cc(-c5ccc(N6CCNCC6)cc5)cnc34)ccnc2c1,inhibition (INH),TGF-beta receptor type-1 [38],Active
COc1cc(O)c2c(c1)CCC[C@H](O)[C@H](O)[C@H](O)CCC[C@H](C)OC2=O,IC50,[7],1780 nM
same,inhibition,[2],Active
